The values below come from patent US6451973B1, “Anilinopeptide derivatives” (Novatis AG, priority 1996, dated 2002).

Broadly, the melting point is the temperature, or range, at which the solid turns liquid. Compound `CC[C@H](C)[C@H](NC(=O)OC)C(=O)NN(Cc1ccc(N2CCCC2)cc1)C[C@H](O)[C@H](Cc1ccccc1)NC(=O)[C@@H](NC(=O)OC)C(C)(C)C` [Example 9, 1-[p-(Pyrrolidin-1-yl)phenyl]-4(S)-hydroxy-2-[N-(N-methoxycarbonyl-(L)-isoleucyl)amino]-5(S)-[N-(N-methoxycarbonyl-(L)-tert-leucyl)amino]-6-phenyl-2-azahexane] came in with a melting point of 158 to 161 °C.
The result for `COC(=O)N[C@H](C(=O)N[C@@H](Cc1ccccc1)[C@@H](O)CN(Cc1ccc(N2CCCC2)cc1)NC(=O)[C@@H](NC(=O)OC)C(C)(C)C)C(C)C` [Example 11, 1-[p-(Pyrrolidin-1-yl)phenyl]-4(S)-hydroxy-2-[N-(N-methoxycarbonyl-(L)-tert-leucyl)amino]-5(S)-[N-(N-methoxycarbonyl-(L)-valyl)amino]-6-phenyl-2-azahexane] reads 118 to 121 °C (dec.).
